Data on 16 compounds can be found in PubChem BioAssay (NCI).

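Tested at 5 concentrations; 48 h exposure; 96-well plates; endpoints linearly interpolated, else capped at highest concentration. Here, GI50 denotes the concentration required for 50% inhibition of growth. TGI is the concentration that stops growth completely.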

What all share (experiment): NCI anticancer screen, dose series, 48 h
The subject of assay [1] is TK-10 renal.
The subject of assay [2] is HT29 colon.
For assay [3], the system named is NCI-H23 lung.
The subject of assay [4] is SF-295 CNS.
Assay [5] relates to OVCAR-8 ovarian.
The test system of assay [6] is K-562 leukemia.
The test system of assay [7] is BT-549 breast.
For assay [8], the system named is SK-MEL-2 melanoma.
The subject of assay [9] is SF-268 CNS.
Assay [10] deals with OVCAR-5 ovarian.

For `C=C(C)[C@@H]1CC[C@]2(COC(=O)c3ccccc3C(=O)O)CC[C@]3(C)[C@H](CC[C@@H]4[C@@]5(C)CC[C@H](OC(=O)c6ccccc6C(=O)O)C(C)(C)[C@@H]5CC[C@]43C)[C@@H]12`, the GI50 was 24.8 µM in assay [1]; 46 µM in assay [2]; 42.7 µM in assay [3]; 24.1 µM in assay [4]; 42.6 µM in assay [5]; 31.7 µM in [6]. Further, the GI50 in [7] was 33.3 µM; in assay [8], 20.6 µM; in [9] it was 26.6 µM; in [10] it was over 100 µM. For the same compound, the TGI in [1] is 63.3 µM; in assay [2], over 100 µM; in assay [3], over 100 µM; in [4], over 100 µM; in assay [5] it was over 100 µM; in assay [6], over 100 µM. Also, the TGI is over 100 µM in [7], 54.1 µM in [8], over 100 µM in assay [9] and over 100 µM in [10].
As to `COc1ccc(/C=N/C2=NNC(C)(c3ccccc3O)N2C(Cc2c[nH]c3ccccc23)C(=O)O)cc1` (stereo not given), the GI50 in assay [1] is 5.01 µM; in [2], 2.36 µM; in assay [3] it was 2.28 µM; in [4], 2.12 µM; in assay [5] it was 3.23 µM; in assay [6], 2.38 µM. Besides, the GI50 is 2.24 µM in assay [7], 2.27 µM in [8], 3.11 µM in assay [9] and 3.06 µM in assay [10]. For the same compound, the TGI was 10.9 µM in assay [1]; 9.51 µM in [2]; 8.61 µM in assay [3]; 7.35 µM in assay [4]; 16 µM in [5]; 11.6 µM in assay [6]. Also, the TGI in assay [7] came out at 7.62 µM; in assay [8] it was 5.81 µM; in assay [9], 13.8 µM; in assay [10], 19 µM.
Take `COc1cc2c3c(n(CCCN=[N+]=[N-])c(=O)c2cc1OC)-c1ccc(NC(C)=O)cc1C3=O`: the GI50 is over 50 µM in assay [1]; over 50 µM in assay [2]; over 50 µM in [3]; 8.96 µM in assay [4]; over 50 µM in [5]; over 50 µM in [6]. Also, the GI50 in assay [7], in assay [8], in assay [9] and in [10] was over 50 µM throughout. Further, the TGI in [1], in [2], in assay [3], in assay [4], in assay [5] and in assay [6] was over 50 µM each time. Also, the TGI in assay [7], in assay [8], in assay [9] and in assay [10] was over 50 µM throughout.
With `COc1ccc(OC)c(-c2nc3sc(C)cn3c2/C=C2\C(=O)N(C)c3ccccc32)c1`, the GI50 in [1] is 48.3 µM; in [2] it was 21.9 µM; in assay [3] it was 24.4 µM; in assay [4], 19.6 µM; in [5], 28.3 µM; in [6], 5.98 µM. Moreover, the GI50 in assay [7] is 26.2 µM; in assay [8], 15.6 µM; in [9], 19.7 µM; in [10], 44.9 µM. In addition, the TGI in assay [1] is over 100 µM; in [2] it was 70 µM; in [3], 59.3 µM; in [4], 46.7 µM; in [5] it was over 100 µM; in [6], 71.1 µM. Moreover, the TGI is 81.6 µM in assay [7], 43.6 µM in [8], 63.6 µM in assay [9] and over 100 µM in assay [10].
Turning to `CN1CCC(n2cnc(-c3ccc(F)cc3)c2-c2ccnc(Nc3ccccc3)n2)CC1`, the GI50 was 2.34 µM in [1]; 3.95 µM in assay [2]; 16.3 µM in assay [3]; over 19.2 µM in assay [4]; 8.86 µM in assay [5]; 5.94 µM in assay [6]. The GI50 in assay [7] is 10.4 µM; in [8], 11.3 µM; in assay [9] it was 9.91 µM; in [10] it was 15 µM. For the same compound, the TGI in assay [1], in assay [2], in assay [3], in assay [4], in assay [5] and in [6] was over 25 µM throughout. In addition, the TGI in assay [7], in assay [8], in assay [9] and in assay [10] was over 25 µM throughout.
On to `O=C(/C=C/c1cc(O)ccc1O)c1ccc(Cl)cc1`, for which the GI50 in [1] is 31.6 µM; in assay [2], 54.4 µM; in [3], 19.1 µM; in [4], 35.3 µM; in assay [5], 57.2 µM; in assay [6], 46.1 µM. Moreover, the GI50 was 25.9 µM in assay [7], 60.7 µM in [8], 20.7 µM in assay [9] and 17.4 µM in assay [10]. In addition, the TGI in assay [1] was over 100 µM; in assay [2] it was over 100 µM; in assay [3] it was 43.3 µM; in assay [4], over 100 µM; in [5], over 100 µM; in assay [6], over 100 µM. In addition, the TGI in [7] is 51.8 µM; in assay [8], over 100 µM; in assay [9] it was over 100 µM; in assay [10], 38.7 µM.
Regarding `CCOC(=O)CC1C(CNC(=O)NC)OC(n2cnc3c(NC(=O)Nc4ccccc4)ncnc32)C1O[Si](C)(C)C(C)(C)C` (stereo not given), the GI50 in [1] was 12.4 µM; in assay [2] it was 4.2 µM; in assay [3] it was 33.3 µM; in assay [4], 5.73 µM; in assay [5], 4.92 µM; in assay [6] it was 3.59 µM. The GI50 is over 100 µM in assay [7], 5.42 µM in [8], 6.53 µM in assay [9] and 31.1 µM in assay [10]. Moreover, the TGI in assay [1] is 40.5 µM; in [2], over 100 µM; in assay [3] it was over 100 µM; in assay [4], over 100 µM; in assay [5] it was 77.2 µM; in [6], 32.9 µM. The TGI in assay [7] was over 100 µM; in assay [8], 33.1 µM; in assay [9], 27 µM; in [10], over 100 µM.
Turning to `CC(=O)OCCC/C(=C/c1cc2ccccc2c2ccccc12)[N+](=O)[O-]`, the GI50 is 1.69 µM in assay [1]; 1.97 µM in assay [2]; 1.57 µM in [3]; 0.977 µM in assay [4]; 1.61 µM in [5]; 1.7 µM in assay [6]. Further, the GI50 was 1.56 µM in assay [7], 1.54 µM in assay [8], 1.47 µM in assay [9] and 1.68 µM in assay [10]. Further, the TGI in assay [1] worked out at 3.14 µM; in assay [2] it was 3.72 µM; in [3], 3.27 µM; in assay [4], 2.32 µM; in [5], 3.21 µM; in [6], 6.87 µM. For the same compound, the TGI was 3.26 µM in [7], 2.98 µM in assay [8], 2.89 µM in [9] and 3.11 µM in [10].
`Fc1cccc(-c2nc(-c3c[nH]c4ncccc34)cs2)c1`: the GI50 in assay [1] was 25.9 µM; in [2], over 100 µM; in assay [3] it was 71.1 µM; in assay [4] it was 36.8 µM; in [5], 42.4 µM; in [6] it was over 100 µM. The GI50 in [7] was 44.8 µM; in [8], over 100 µM; in [9], 38.2 µM; in [10] it was over 100 µM. Besides, the TGI in assay [1], in assay [2], in assay [3], in assay [4], in assay [5] and in assay [6] was over 100 µM each time. The TGI in assay [7], in assay [8], in assay [9] and in assay [10] was over 100 µM throughout.
Take `Cc1ccc(Nn2c(SCC(=O)Nc3nc(-c4ccccc4)cs3)nc(C)c2C)cc1`: the GI50 is 18.9 µM in [1]; 4.37 µM in assay [2]; 3.42 µM in assay [3]; 1.06 µM in assay [4]; 3.79 µM in assay [5]; 3.62 µM in [6]. Besides, the GI50 was 3.18 µM in assay [7], 7.58 µM in assay [8], 9.1 µM in [9] and 17.2 µM in assay [10]. For the same compound, the TGI in assay [1] is over 100 µM; in assay [2], 28.2 µM; in assay [3] it was over 100 µM; in assay [4], 5.89 µM; in assay [5] it was over 100 µM; in assay [6], over 100 µM. Further, the TGI in [7] was 14.1 µM; in assay [8] it was 35.3 µM; in assay [9], over 100 µM; in assay [10], over 100 µM.
On to `NC1=C(/C(N)=N/O)C(c2ccccc2)c2ccc3ccccc3c2O1` (stereo not given), for which the GI50 in [1] was 20.2 µM; in assay [2], 1.16 µM; in [3], 0.479 µM; in assay [4] it was 0.321 µM; in assay [5], 0.725 µM; in assay [6], 0.145 µM. Moreover, the GI50 in assay [7] was 1.11 µM; in [8], 19.9 µM; in assay [9] it was 1.09 µM; in [10] it was 1.19 µM. For the same compound, the TGI in [1] is over 100 µM; in [2], over 100 µM; in assay [3] it was over 100 µM; in [4] it was 7.06 µM; in [5], over 92.9 µM; in assay [6], over 100 µM. For the same compound, the TGI in [7] was 69.6 µM; in assay [8], over 100 µM; in assay [9], over 72.6 µM; in assay [10], over 100 µM.
On to `CN1CCN(c2ccc(NC(=O)c3cncnc3Nc3ccc4c(ccn4Cc4cccc(F)c4)c3)cc2)CC1`, for which the GI50 in [1] is 5.87 µM; in assay [2], 0.922 µM; in [3] it was 4.35 µM; in [4], 5.41 µM; in assay [5], 3.8 µM; in [6] it was 0.55 µM. The GI50 in assay [7] is 5.23 µM; in [8], 5.2 µM; in assay [9], 4.3 µM; in [10], 3.42 µM. For the same compound, the TGI is 11.1 µM in assay [1]; 2.9 µM in [2]; 9.14 µM in [3]; 10.5 µM in assay [4]; 10.6 µM in [5]; 1.2 µM in assay [6]. The TGI in assay [7] stood at 9.78 µM; in [8] it was 10.7 µM; in assay [9], 9.17 µM; in [10], 7.32 µM.
As to `COc1cc(-c2cn(-c3ccc(F)cc3)c(=O)[nH]2)cc(OC)c1OC`, the GI50 in [1], in assay [2], in assay [3], in [4], in assay [5] and in assay [6] was over 100 µM in each case. Besides, the GI50 in assay [7], in assay [8], in [9] and in [10] was over 100 µM each time. Also, the TGI in assay [1], in assay [2], in assay [3], in assay [4], in assay [5] and in assay [6] was over 100 µM each time. In addition, the TGI in [7], in assay [8], in [9] and in assay [10] was over 100 µM throughout.
Turning to `COc1ccccc1C(=O)Nc1ccc(Cl)c(C(=O)OC(C)C)c1`, the TGI in assay [1] was over 100 µM; in [2] it was 88.2 µM; in assay [3], 28.1 µM; in [4], over 100 µM; in assay [5], over 100 µM; in assay [6], over 100 µM. In addition, the TGI in assay [7] is over 100 µM; in assay [8], over 76.8 µM; in assay [9] it was over 95.2 µM; in assay [10], over 83.4 µM.
For `C=C(C)C1Cc2cc(C(C)=O)ccc2O1` (stereo not given), the TGI in assay [1], in [2], in assay [3], in [4], in assay [5] and in assay [6] was over 100 µM each time. For the same compound, the TGI in assay [7], in assay [8], in assay [9] and in assay [10] was over 100 µM throughout.
For the compound `Cn1c(=O)c2[nH]c(CCS)nc2n(C)c1=O`, the TGI in [1], in assay [2], in assay [3], in assay [4], in assay [5] and in assay [6] was over 100 µM each time. In addition, the TGI in assay [7], in [8], in [9] and in assay [10] was over 100 µM in each case.
